Results: patent US11945822B2, “Pyrazolo-triazine and/or pyrazolo-pxrimidine derivatives as selective inhibitor of cyclin dependent kinase” (QURIENT CO., LTD., priority 2018, dated 2024)

Columns and labels:
CDK1/Cyclin B = molecular target: T1, CDK1/Cyclin B (Homo sapiens, UniProt P06493); assay: Enzymatic assay for CDK1 (FRET based LANCE Ultra kinase assay); type: biochemical; settings: read-out: CDK1 enzymatic activity (IC50 range)
T1 construct: purchased Invitrogen PR4768C
How it was run: (§1)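 LANCE Ultra TR-FRET: ULight-MBP peptide (68 nM) with ATP at Km, […], 60 min at 23° C. EDTA plus Eu-anti-phospho-MBP added, another 60 min, then 665/615 nm emission read. Compounds tested as 8-dose 4-fold DMSO dilutions.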

CDK2/Cyclin A = molecular target: T2, CDK2/Cyclin A (Homo sapiens, UniProt P24941); assay: Enzymatic assay for CDK2 (FRET based LANCE Ultra kinase assay); type: biochemical; settings: read-out: CDK2 enzymatic activity (IC50 range)
T2 construct: purchased Invitrogen PV6290
How it was run: as §1

CDK5/p25 = molecular target: T3, CDK5/p25 (Homo sapiens, UniProt Q00535); assay: Enzymatic assay for CDK5 (FRET based LANCE Ultra kinase assay); type: biochemical; settings: read-out: CDK5 enzymatic activity (IC50 range)
T3 construct: purchased Invitrogen PR8543B
T3 sequence (Q00535 whole entry): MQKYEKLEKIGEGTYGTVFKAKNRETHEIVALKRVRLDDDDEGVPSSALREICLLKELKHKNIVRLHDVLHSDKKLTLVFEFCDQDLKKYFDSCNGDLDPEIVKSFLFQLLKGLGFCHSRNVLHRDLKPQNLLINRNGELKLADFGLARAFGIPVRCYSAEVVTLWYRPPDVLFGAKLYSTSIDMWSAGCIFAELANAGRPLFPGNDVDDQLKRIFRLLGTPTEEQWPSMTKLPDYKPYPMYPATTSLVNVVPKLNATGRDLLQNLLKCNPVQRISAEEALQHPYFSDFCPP
T3 sequence (Q15078 99-307 partner limits assumed): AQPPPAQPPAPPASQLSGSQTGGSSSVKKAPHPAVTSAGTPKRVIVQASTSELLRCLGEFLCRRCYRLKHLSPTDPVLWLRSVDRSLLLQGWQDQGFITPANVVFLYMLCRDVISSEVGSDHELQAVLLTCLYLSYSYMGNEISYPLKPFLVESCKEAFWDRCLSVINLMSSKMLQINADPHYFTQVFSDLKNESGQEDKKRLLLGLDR
How it was run: as §1

CDK7/Cyclin H/MNAT1 = molecular target: T4, CDK7/Cyclin H/MNAT1 (Homo sapiens, UniProt P50613); assay: Enzymatic assay for CDK7 (FRET based LANCE Ultra kinase assay); type: biochemical; settings: for IC50: read-out: CDK7 enzymatic activity (IC50 range)
T4 construct: purchased Invitrogen PR6749B
T4 sequence (P50613 whole entry): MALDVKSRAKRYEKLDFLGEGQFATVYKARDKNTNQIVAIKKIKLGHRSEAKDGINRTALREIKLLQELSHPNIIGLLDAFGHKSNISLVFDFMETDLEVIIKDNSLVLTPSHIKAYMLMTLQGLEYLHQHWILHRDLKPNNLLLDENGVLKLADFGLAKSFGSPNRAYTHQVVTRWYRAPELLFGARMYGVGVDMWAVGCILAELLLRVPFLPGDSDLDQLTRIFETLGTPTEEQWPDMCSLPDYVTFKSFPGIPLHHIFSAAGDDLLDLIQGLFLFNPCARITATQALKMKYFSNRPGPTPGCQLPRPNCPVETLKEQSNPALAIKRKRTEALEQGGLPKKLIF
T4 sequence (P51946 whole entry partner): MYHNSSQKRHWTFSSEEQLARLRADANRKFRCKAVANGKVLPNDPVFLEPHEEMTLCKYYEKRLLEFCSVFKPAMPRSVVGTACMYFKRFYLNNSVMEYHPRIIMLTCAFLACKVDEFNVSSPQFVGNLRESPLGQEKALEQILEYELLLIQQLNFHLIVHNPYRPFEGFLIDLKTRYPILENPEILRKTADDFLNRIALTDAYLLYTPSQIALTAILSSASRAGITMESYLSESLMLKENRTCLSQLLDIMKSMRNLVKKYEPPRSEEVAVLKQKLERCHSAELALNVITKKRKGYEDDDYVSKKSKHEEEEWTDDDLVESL
T4 sequence (P51948 whole entry partner): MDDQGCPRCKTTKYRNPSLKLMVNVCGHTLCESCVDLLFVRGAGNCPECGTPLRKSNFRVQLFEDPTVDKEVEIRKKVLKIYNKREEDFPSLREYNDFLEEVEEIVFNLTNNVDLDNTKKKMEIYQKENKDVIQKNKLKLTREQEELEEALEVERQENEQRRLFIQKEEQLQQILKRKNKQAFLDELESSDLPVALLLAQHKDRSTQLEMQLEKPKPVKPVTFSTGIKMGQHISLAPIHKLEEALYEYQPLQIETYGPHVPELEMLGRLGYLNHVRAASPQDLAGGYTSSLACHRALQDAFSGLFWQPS
How it was run: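 Inhibition was measured at Km ATP by time-resolved FRET between a Eu anti-phospho antibody and a phosphorylated ULight peptide. The enzyme was the purified CDK7/cyclin complex, and data were curve-fitted.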

HCT116 = assay: Cellular HCT116 viability assay (CellTiter-Glo, 72 hours); type: cell-based; settings: Homo sapiens, HCT-116
Method: (§2) All cell lines were routinely tested for mycoplasma.
(§3) The effect of the CDK7 inhibitor to inhibit the growth of target cancer cells was evaluated through the 72 hours time period of viability assay. Briefly, the candidate cell line ware plated in 96 well plate at the following density of cells respectively. […] DMSO solvent without compound served as a control and final DMSO concentration less than 0.1%. After 72 hours of incubation at 37° C., 5% CO2 incubator, cells were analyzed for the viability using the CellTiter-Glo Luminescent Cell Viability Assay (Promega, Cat #G7570). All viability assays were performed in duplicate and Luminescence was read using an Envision (Perkin Elmer, USA). Data was analyzed using XLfit software.

H460 = assay: Cellular H460 viability assay (CellTiter-Glo, 72 hours); type: cell-based; settings: Homo sapiens, NCI-H460
How it was run: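 CellTiter-Glo luminescence read in duplicate after 72 h compound exposure (37 °C, 5% CO2); DMSO-only control, final DMSO under 0.1%.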

MV4-11 = assay: Cellular MV4-11 viability assay (CellTiter-Glo, 72 hours); type: cell-based; settings: Homo sapiens
Method: as §2, §3

T1 sequence (P06493 whole entry): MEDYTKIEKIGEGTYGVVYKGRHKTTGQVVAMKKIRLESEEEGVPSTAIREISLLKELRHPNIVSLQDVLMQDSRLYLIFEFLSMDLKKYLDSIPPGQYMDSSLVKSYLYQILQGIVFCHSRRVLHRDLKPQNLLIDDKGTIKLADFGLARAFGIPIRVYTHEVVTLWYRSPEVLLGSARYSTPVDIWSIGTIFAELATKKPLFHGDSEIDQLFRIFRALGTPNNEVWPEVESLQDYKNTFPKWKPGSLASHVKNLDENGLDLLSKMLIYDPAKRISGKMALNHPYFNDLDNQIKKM
T1 sequence (P14635 whole entry partner): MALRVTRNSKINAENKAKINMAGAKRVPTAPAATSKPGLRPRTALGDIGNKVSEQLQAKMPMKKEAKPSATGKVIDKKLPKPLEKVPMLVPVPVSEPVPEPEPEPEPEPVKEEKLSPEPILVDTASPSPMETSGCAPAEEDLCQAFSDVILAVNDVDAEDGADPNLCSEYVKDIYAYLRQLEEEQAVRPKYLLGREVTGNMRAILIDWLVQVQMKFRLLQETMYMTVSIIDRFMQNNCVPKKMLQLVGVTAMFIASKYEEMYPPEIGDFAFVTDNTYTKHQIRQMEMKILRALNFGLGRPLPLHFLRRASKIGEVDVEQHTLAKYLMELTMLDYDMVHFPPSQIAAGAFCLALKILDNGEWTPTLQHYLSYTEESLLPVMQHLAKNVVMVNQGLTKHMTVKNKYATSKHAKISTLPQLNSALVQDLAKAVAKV

| Structure (SMILES) | IC50 (CDK1/Cyclin B) | IC50 (CDK2/Cyclin A) | IC50 (CDK5/p25) | CDK1/CDK7: Selectivity of CDK7 inhibition over CDK1 inhibition (CDK7/Cyclin H/MNAT1) | CDK2/CDK7: Selectivity of CDK7 inhibition over CDK2 inhibition (CDK7/Cyclin H/MNAT1) | CDK5/CDK7: Selectivity of CDK7 inhibition over CDK5 inhibition (CDK7/Cyclin H/MNAT1) | IC50 (CDK7/Cyclin H/MNAT1) | IC50 (HCT116) | IC50 (H460) | IC50 (MV4-11) |
| --- | --- | --- | --- | --- | --- | --- | --- | --- | --- | --- |
| CCC(=O)N1CCc2nn(-c3cccc(Cl)c3CNc3cc(O[C@@H]4CCCNC4)nc4c(C(C)C)cnn34)cc2C1 [Compound 211] | > 1 µM | > 1 µM | > 1 µM | A (A=greater than 200 fold) | A (A=greater than 200 fold) | A (A=greater than 200 fold) | < 0.1 µM | 1 to 10 µM | 1 to 10 µM | 1 to 10 µM |
| CC(C)c1cnn2c(NCc3ccccc3-c3ccc4ccccc4n3)nc(NCC3(O)CCNCC3)nc12 [Compound 212] | > 1 µM | > 1 µM | > 1 µM | A (A=greater than 200 fold) | B (B=less than 200 fold, but greater than 20 fold) | B (B=less than 200 fold, but greater than 20 fold) | < 0.1 µM | 1 to 10 µM | 1 to 10 µM | 1 to 10 µM |
| CC(C)c1cnn2c(NCc3ccccc3-c3ccc4ccccc4n3)cc(OCC3CCNCC3)nc12 [Compound 213] | > 1 µM | > 1 µM | > 1 µM | A (A=greater than 200 fold) | A (A=greater than 200 fold) | A (A=greater than 200 fold) | < 0.1 µM | 1 to 10 µM | 1 to 10 µM | 1 to 10 µM |
| Cc1cccc(-c2cc(CO)nn2C)c1CNc1nc(N2CCC(N)CC2)nc2c(C(C)C)cnn12 [Compound 214] | > 1 µM | > 1 µM | > 1 µM | A (A=greater than 200 fold) | A (A=greater than 200 fold) | A (A=greater than 200 fold) | < 0.1 µM | < 1 µM | < 1 µM | < 1 µM |
| CC(C)c1cnn2c(NCc3ccccc3-c3ccc4ccccc4n3)nc(OCC3CCNCC3)nc12 [Compound 215] | > 1 µM | > 1 µM | > 1 µM | A (A=greater than 200 fold) | A (A=greater than 200 fold) | A (A=greater than 200 fold) | < 0.1 µM | 1 to 10 µM | < 1 µM | 1 to 10 µM |
| CC(C)c1cnn2c(NCc3ccccc3-c3ccc4ccccc4n3)nc(N3CCC(CN)CC3)nc12 [Compound 216] | > 1 µM | > 1 µM | > 1 µM | A (A=greater than 200 fold) | A (A=greater than 200 fold) | A (A=greater than 200 fold) | < 0.1 µM | < 1 µM | < 1 µM | < 1 µM |
| CC(C)c1cnn2c(NCc3c(Cl)cccc3-n3ccc(C(C)(C)O)n3)nc(N3CCC(CN)CC3)nc12 [Compound 217] | > 1 µM | > 1 µM | > 1 µM | A (A=greater than 200 fold) | A (A=greater than 200 fold) | A (A=greater than 200 fold) | < 0.1 µM | < 1 µM | < 1 µM | < 1 µM |
| CC(C)c1cnn2c(NCc3ccccc3-c3ccc4ccccc4n3)nc(OCC3CCNCC3O)nc12 (centres unmarked) [Compound 218] | > 1 µM | > 1 µM | > 1 µM | A (A=greater than 200 fold) | A (A=greater than 200 fold) | A (A=greater than 200 fold) | < 0.1 µM | < 1 µM | < 1 µM | < 1 µM |
